Data: patent US20140045937A1, “METHODS OF TREATING POLYCYSTIC OVARIAN SYNDROME USING CHLOROGENIC ACID” (Oculus Innovative Sciences, Inc., priority 2012, published 2014)

Key:
PCOS = details: variety of clinical trials, literature; cited from earlier work
[1] = system: PCOS and/or anovulation in female patients; test: GLUCOREIN beverage (chlorogenic acid and L-cysteine) in anovulatory female patients with PCOS symptoms attempting to become pregnant; assay type: in vivo, human; details: CLOMID added to GLUCOREIN regimen after three months; three patients with body mass index over 35; read after four months of treatment
Method: Ten female patients, between the ages of 25 and 37, each anovulatory, were evaluated. […] Chronic anovulation is a common cause of infertility. These patients were also attempting to become pregnant and presented with multiple symptoms of PCOS. Their diets were supplemented with GLUCOREIN medical food beverage (a powdered solid including the components set forth in Table 1 mixed in 8 ounces of water). Per instructions for use, the patients each consumed one eight-ounce serving of the GLUCOREIN beverage each day, typically in the morning hours.
After four months of treatment, with all ten patients continuing with the protocol, the results were as follows: […]

| SMILES | treatment or prevention of PCOS (PCOS) | patients who tested positive for ovulation [1] |
| --- | --- | --- |
| CC(=O)N[C@@H](CS)C(=O)O [NAC, N-acetyl-L-cysteine] | shown to treat or prevent PCOS | – |
| CCN(CC)CCOc1ccc(C(=C(Cl)c2ccccc2)c2ccccc2)cc1 [CLOMID, clomiphene] | – | none |
